Data reported in US9642854B2, “Flavanoid compounds and process for preparation thereof” (Council of Scientific & Industrial Research, priority 2009, dated 2017).
“Also recorded” adds a separate entry of the source.

Key:
[1] = test system: H. pylori; assay: Anti H. pylori screening by disc diffusion susceptibility assay; assay type: cell-based, Helicobacter pylori; settings: 72 h; for Inhibition zone diameter (score): 100 and 200 mg/disc (so in the source)
Outline: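 Clinical strains HP001, HP002 and ATCC 700392, 43504, 49503 (10^8 CFU/mL) spread on supplemented BHI agar; 5 mm discs loaded with 100 and 200 […] compound in ethanol or DMSO. Zones read after 72 h microaerophilic growth at 37 °C; scored + (10-20 mm), ++ (20-30 mm), +++ (>30 mm), Nil <10 mm.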

[2] = test system: H. pylori; assay: Time kill kinetic analyses in biphasic culture; assay type: cell-based, Helicobacter pylori
[3] = test system: H. pylori clinical strain HP001; assay: Acridine orange fluorescence microscopy of morphological transformation; assay type: cell-based, Helicobacter pylori; settings: 24 h
Procedure: Acridine orange fluorescence microscopic evidence is provided. The details of experimental procedures are provided under Experiment 9.
For the purpose of fluorescence staining, a bacterial smear was prepared, fixed with methanol for 2 min, stained with 0.1% acridine orange solution for 2-3 min, rinsed thoroughly with distilled water (Haqqani, 2001) and observed under fluorescence microscopy using 1-3 filter (emission wavelength 510 nm). The live organism appeared as orange color in the dark background and the non-viable cells as green (Shirai et al., 2000).

[4] = test system: H. pylori ATCC 43504; assay: Transmission electron microscopy of morphological transformation; assay type: cell-based, Helicobacter pylori; settings: 24 h
Excerpt: The morphological alteration of H. pylori cells (ATCC® 43504) exposed to various concentrations of CPP-1 was further examined using transmission electron microscopy (Dai et al., 2005). […] Samples were dehydrated, embedded in SPUR, sections cut and applied to copper grids. The grids were contrasted with uranyl acetate and lead citrate and the sections were examined on a transmission electron microscope.

[5] = test system: gastric parietal cell; assay: Basal acid secretion in gastric parietal cell ([14C]-aminopyrine uptake ratio); assay type: cell-based, rabbit
Procedure: Dose-dependent inhibition of aminopyrine (AP) uptake ratio in parietal cell suspension after CPP-1 treatment was measured.
(§1) Parietal cells (PC) were isolated from New Zealand White rabbits (weighing ^˜2.5 kg) essentially according to Berglindh (1984) and as modified by Mazzeo et al. (1988). The PC preparations were nearly 90% pure and viable. The effect of CPP-1 on basal and histamine stimulated acid secretion in parietal cells was examined as follows. The PC suspension was incubated for 10 min at 37° C. with gentle stirring and continuous slow top gassing with oxygen. The [^14C]-aminopyrine (115 mCi/mmole) was added to the suspension at […], and incubation was continued for another 10 min. One-milliliter aliquot of PC (^˜5×10^6 cells) was added to various concentrations of CPP-1 in the presence and the absence of histamine (0.1 mM) and incubated for 20 min at 37° C. with slow shaking and oxygen top gassing. At the end of the incubation, the PC suspensions were centrifuged, supernatant carefully aspired off and the pellets solubilized in scintillation fluid containing Triton X-100. The resulting solution was counted in a liquid scintillation counter. The aminopyrine accumulation was determined as the ratio of intra- to extracellular aminopyrine according to Mazzeo et al. (1988).

[6] = test system: gastric parietal cell; assay: Histamine-stimulated acid secretion in gastric parietal cell ([14C]-aminopyrine uptake ratio); assay type: cell-based, rabbit; settings: histamine 0.1 mM
Procedure: Dose-dependent inhibition of histamine-stimulated aminopyrine (AP) uptake ratio in parietal cell suspension after CPP-1 treatment was measured.
as §1

[7] = test system: Swiss albino mice; assay: Acute toxicity evaluation in mice; assay type: in vivo; settings: up to 0.5 g/kg body weight orally, 15 days observation
Excerpt: Five animals of Swiss albino mice strain were used for this purpose. The dosage up to 0.5 g/kg body weight given orally per mice and the animals were kept for 15 days under observation. It was observed that the mice were not affected at the dose level of 0.5 g/kg body weight of CPP-1.

O=c1cc(-c2ccccc2)oc2cc(OCCCCCCN3CCCCC3)cc(O)c12 [CPP-1, 5-Hydroxy-2-phenyl-7-(6-piperidin-1-yl-hexyloxy)-chromen-4-one]
Inhibition zone diameter (score) ([1]; ATCC standard strain 43504): ++ (20-30 mm as ^++) | Inhibition zone diameter (score) ([1]; ATCC standard strain 49503): +++ (that of >30 mm as ^+++) | Inhibition zone diameter (score) ([1]; ATCC standard strain 700392): ++ (20-30 mm as ^++) | zone of inhibition at 100 µg/disc ([1]; Helicobacter pylori, 100 and 200 μg/disc, majority of the strains, read-out: Activity class by inhibition zone diameter): > 30 mm | Inhibition zone diameter (score) ([1]; clinical strain HP001): ++ (20-30 mm as ^++) | Inhibition zone diameter (score) ([1]; clinical strain HP002): +++ (that of >30 mm as ^+++) | decrease in cell count within 36 h ([2]; ATCC 43504, 0.5×MIC (3.125 μg/mL)): f-log decrease in cell count | time to complete killing ([2]; ATCC 43504, 1×MIC (6.25 μg/mL)): ≤ 36 h | time at which killing/inhibition became evident ([2]; HP001, biphasic culture): ≤ 6 h | killing at MIC dose (1×MIC) ([2]; HP001, up to 36 h): not high enough to produce total bactericidal activity | morphological alteration (fluorescence microscopy) ([3]; 3.125 mg/mL (so in the source)): resembled almost like control with some deformation | morphological alteration (fluorescence microscopy) ([3]; 6.25 and […] (so in the source)): progressively deteriorating cell population leading to more of non-viable cells (green fluorescence) and coccid formation | morphological alteration (transmission electron microscope) ([4]; 6.25 μg/mL): only few bacteria with intact shape and structure | morphological alteration (transmission electron micrographs) ([4]; 6.25 or […]): induced swelling and vacuole like structures in the cytoplasm of H. pylori cells | morphological alteration (transmission electron microscope) ([4]; […]): most cells were found to be progressively swollen and destroyed | IC50 ([5]; Oryctolagus cuniculus, rabbit gastric parietal cell, aminopyrine uptake ratio): ~5 µg/mL | fold less potent than omeprazole in inhibiting basal acid secretion ([5]; parietal cells): 2-3 fold | potency relative to cimetidine, basal acid secretion ([5]; parietal cells): much more potent than cimetidine | IC50 ([6]; Oryctolagus cuniculus, rabbit gastric parietal cell): ~15 µg/mL | activity relative to cimetidine, histamine-stimulated secretion [6]: more active than cimetidine | fold less potent than omeprazole in inhibiting histamine-stimulated secretion [6]: about 5 fold | mortality [7]: did not show any mortality; also recorded: No mortality and behavioral abnormality was noted
